Data reported in ChEMBL document CHEMBL4043168, “The design and SAR of a novel series of 2-aminopyridine based LRRK2 inhibitors” (Bioorg Med Chem Lett, 2017).

What was measured:
[1] = target: Tyrosine-protein kinase ABL1 (Homo sapiens) (UniProt P00519); test: Inhibition of ABL labeling at activation Loop (LMTGDTYTAHAGAKFPIK) in human PBMC at 1 uM
[2] = target: Serine/threonine-protein kinase LATS2 (Homo sapiens) (UniProt Q9NRM7); test: Inhibition of LATS2 conserved Lys2 (DIKPDNILIDLDGHIK) in human PBMC at 0.1 uM
[3] = target: 5'-AMP-activated protein kinase catalytic subunit alpha-1 (Homo sapiens) (UniProt Q13131); test: Inhibition of AMPKa1 labeling at conserved Lys2 (DLKPENVLLDAHMNAK) in human PBMC at 1 uM
[4] = target: T1, Serine/threonine-protein kinase ULK3 (Homo sapiens) (UniProt Q6PHR2); test: Inhibition of ULK3 conserved Lys2 (NISHLDLKPQNILLSSLEKPHLK) in human PBMC at 0.1 uM
T1 sequence (whole entry): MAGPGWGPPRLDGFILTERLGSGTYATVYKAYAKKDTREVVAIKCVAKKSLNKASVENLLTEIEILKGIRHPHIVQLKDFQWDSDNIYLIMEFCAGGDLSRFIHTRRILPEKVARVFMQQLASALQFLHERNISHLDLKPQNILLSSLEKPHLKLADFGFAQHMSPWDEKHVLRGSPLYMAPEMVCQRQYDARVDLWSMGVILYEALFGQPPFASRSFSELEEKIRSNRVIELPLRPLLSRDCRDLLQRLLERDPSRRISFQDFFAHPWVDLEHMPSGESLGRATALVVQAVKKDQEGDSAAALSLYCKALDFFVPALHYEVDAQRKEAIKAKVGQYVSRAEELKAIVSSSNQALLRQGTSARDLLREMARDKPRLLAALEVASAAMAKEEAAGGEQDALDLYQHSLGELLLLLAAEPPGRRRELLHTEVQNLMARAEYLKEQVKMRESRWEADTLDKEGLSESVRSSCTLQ

[5] = target: Serine/threonine-protein kinase Nek6 (Homo sapiens) (UniProt Q9HC98); test: Inhibition of NEK6 conserved Lys2 (DIKPANVFITATGVVK) in human PBMC at 1 uM
[6] = target: Tyrosine-protein kinase Fer (Homo sapiens) (UniProt P16591); test: Inhibition of FER conserved Lys2 (QEDGGVYSSSGLKQIPIK) in human PBMC at 0.1 uM
[7] = target: Tyrosine-protein kinase BTK (Homo sapiens) (UniProt Q06187); test: Inhibition of BTK labeling at activation Loop (YVLDDEYTSSVGSKFPVR) in human PBMC at 0.1 uM
[8] = target: RAC-alpha serine/threonine-protein kinase (Homo sapiens) (UniProt P31749); test: Inhibition of AKT1 labeling at ATP binding site (GTFGKVILVK) in human PBMC at 0.1 uM
[9] = target: Inhibitor of nuclear factor kappa-B kinase subunit alpha (Homo sapiens) (UniProt O15111); test: Inhibition of IKKa conserved Lys2 (DLKPENIVLQDVGGK) in human PBMC at 0.1 uM
[10] = target: T2, Inhibitor of nuclear factor kappa-B kinase subunit epsilon (Homo sapiens) (UniProt Q14164); test: Inhibition of IKKe conserved Lys2 (DIKPGNIMR) in human PBMC at 1 uM
T2 sequence (whole entry): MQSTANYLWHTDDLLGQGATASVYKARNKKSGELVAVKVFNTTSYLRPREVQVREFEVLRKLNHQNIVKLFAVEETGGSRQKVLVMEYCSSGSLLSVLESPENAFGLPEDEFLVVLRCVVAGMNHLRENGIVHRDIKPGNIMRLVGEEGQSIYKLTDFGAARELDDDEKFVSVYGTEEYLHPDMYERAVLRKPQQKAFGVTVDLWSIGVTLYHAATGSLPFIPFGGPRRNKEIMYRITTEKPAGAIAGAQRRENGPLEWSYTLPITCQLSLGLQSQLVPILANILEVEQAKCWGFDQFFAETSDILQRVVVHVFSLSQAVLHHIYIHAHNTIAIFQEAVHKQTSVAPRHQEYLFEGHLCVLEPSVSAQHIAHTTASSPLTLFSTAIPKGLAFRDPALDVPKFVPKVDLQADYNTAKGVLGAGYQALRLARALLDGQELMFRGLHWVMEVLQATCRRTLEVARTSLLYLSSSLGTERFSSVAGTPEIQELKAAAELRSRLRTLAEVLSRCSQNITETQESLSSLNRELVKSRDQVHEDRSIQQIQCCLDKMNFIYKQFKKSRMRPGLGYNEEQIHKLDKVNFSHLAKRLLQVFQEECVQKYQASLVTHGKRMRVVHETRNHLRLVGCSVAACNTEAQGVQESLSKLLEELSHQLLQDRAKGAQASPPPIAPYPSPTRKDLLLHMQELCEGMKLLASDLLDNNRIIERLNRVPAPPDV

Sequence of Serine/threonine-protein kinase LATS2 (Homo sapiens) (Q9NRM7 whole entry): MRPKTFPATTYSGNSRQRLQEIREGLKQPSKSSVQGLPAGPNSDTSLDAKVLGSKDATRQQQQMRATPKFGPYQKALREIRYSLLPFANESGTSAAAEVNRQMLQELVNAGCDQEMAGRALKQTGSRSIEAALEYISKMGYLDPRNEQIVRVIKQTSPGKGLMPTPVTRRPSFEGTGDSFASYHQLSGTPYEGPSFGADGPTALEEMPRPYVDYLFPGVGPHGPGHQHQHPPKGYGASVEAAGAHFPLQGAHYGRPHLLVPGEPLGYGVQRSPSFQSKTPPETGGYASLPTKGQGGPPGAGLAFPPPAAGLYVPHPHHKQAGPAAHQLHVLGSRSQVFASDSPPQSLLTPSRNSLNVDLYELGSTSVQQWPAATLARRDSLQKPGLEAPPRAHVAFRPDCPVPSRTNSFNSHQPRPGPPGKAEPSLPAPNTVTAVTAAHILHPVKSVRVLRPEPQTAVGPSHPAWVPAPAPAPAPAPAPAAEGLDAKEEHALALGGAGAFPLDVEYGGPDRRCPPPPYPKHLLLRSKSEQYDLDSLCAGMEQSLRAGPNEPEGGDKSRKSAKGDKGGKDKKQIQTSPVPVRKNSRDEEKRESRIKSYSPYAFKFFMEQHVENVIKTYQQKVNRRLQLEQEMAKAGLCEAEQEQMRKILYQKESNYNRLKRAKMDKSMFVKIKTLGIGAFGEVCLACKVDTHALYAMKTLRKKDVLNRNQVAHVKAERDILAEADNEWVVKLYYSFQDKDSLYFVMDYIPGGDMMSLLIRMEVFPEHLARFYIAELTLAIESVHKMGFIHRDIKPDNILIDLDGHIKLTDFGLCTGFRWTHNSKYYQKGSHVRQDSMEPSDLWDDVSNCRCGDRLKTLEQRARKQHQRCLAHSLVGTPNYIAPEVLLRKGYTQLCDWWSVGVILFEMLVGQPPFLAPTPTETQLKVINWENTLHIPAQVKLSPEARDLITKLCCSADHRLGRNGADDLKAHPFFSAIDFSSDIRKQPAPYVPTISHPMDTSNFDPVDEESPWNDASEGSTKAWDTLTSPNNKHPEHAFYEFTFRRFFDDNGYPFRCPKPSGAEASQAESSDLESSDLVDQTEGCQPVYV
Sequence of Inhibitor of nuclear factor kappa-B kinase subunit alpha (Homo sapiens) (O15111 whole entry): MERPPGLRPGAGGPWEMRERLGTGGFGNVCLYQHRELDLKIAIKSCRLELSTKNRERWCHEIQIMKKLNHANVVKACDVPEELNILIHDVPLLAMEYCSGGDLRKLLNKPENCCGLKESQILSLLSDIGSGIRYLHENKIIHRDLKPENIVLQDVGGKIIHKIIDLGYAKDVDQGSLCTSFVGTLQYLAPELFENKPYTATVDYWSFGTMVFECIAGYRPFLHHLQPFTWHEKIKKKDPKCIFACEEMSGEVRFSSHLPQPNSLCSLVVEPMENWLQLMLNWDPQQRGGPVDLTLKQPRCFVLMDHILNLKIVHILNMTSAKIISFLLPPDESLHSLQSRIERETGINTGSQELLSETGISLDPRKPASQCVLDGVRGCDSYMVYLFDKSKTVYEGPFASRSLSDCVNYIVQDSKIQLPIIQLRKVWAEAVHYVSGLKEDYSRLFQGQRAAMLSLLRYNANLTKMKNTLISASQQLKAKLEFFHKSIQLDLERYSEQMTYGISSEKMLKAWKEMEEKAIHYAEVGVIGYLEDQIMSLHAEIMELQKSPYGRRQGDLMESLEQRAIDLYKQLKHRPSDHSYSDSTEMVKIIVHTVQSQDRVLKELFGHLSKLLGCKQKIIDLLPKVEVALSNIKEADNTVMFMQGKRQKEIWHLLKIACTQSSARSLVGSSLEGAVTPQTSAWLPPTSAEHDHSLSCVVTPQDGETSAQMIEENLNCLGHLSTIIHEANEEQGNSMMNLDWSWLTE
Sequence of RAC-alpha serine/threonine-protein kinase (Homo sapiens) (P31749 whole entry): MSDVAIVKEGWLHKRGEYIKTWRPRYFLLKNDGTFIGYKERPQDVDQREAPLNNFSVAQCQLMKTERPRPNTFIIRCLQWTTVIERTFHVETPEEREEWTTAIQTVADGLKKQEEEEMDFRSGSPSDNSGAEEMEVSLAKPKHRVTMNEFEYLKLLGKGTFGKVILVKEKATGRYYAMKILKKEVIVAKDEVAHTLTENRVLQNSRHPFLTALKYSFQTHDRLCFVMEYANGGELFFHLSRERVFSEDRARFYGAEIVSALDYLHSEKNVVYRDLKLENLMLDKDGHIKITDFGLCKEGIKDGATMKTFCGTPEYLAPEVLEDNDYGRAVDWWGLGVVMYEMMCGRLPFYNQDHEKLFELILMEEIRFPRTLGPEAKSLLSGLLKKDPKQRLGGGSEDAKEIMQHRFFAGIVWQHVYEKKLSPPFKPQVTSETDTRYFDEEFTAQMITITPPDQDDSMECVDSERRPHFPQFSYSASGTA
Sequence of Tyrosine-protein kinase Fer (Homo sapiens) (P16591 whole entry, looked up): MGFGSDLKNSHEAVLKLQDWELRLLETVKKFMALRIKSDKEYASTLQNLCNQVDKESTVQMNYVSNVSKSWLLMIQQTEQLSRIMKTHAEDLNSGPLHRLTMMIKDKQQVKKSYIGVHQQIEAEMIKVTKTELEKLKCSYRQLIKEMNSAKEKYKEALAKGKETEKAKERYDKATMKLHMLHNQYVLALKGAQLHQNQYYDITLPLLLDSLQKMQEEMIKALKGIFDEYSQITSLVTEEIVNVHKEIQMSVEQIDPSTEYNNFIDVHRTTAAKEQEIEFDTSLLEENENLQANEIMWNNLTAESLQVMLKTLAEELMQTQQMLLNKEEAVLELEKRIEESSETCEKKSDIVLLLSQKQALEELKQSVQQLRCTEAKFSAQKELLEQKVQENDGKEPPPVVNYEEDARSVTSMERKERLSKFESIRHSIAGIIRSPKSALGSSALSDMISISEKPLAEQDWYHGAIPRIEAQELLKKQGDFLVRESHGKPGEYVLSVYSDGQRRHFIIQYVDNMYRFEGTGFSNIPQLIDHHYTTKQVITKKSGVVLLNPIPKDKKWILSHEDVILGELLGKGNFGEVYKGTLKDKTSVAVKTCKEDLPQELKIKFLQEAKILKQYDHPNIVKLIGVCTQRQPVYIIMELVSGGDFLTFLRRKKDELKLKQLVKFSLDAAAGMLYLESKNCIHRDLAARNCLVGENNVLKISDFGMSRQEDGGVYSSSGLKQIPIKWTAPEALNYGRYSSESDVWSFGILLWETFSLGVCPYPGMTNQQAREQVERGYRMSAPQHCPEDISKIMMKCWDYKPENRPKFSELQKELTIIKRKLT
Sequence of 5'-AMP-activated protein kinase catalytic subunit alpha-1 (Homo sapiens) (Q13131 whole entry, looked up): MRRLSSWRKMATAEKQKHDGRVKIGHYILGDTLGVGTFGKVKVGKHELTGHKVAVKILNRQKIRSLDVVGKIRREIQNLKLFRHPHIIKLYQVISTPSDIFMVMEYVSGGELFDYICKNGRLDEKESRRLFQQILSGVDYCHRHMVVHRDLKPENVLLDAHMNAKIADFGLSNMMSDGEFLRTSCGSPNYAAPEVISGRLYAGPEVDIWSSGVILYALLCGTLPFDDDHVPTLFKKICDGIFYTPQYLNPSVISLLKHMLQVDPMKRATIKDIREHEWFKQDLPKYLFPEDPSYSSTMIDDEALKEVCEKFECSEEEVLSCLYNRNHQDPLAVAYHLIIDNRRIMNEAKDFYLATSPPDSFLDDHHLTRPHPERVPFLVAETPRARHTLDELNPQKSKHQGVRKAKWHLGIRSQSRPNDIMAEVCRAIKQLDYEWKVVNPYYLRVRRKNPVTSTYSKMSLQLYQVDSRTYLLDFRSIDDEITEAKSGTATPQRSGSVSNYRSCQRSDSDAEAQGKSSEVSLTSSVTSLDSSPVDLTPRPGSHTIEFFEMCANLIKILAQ
Sequence of Tyrosine-protein kinase ABL1 (Homo sapiens) (P00519 whole entry): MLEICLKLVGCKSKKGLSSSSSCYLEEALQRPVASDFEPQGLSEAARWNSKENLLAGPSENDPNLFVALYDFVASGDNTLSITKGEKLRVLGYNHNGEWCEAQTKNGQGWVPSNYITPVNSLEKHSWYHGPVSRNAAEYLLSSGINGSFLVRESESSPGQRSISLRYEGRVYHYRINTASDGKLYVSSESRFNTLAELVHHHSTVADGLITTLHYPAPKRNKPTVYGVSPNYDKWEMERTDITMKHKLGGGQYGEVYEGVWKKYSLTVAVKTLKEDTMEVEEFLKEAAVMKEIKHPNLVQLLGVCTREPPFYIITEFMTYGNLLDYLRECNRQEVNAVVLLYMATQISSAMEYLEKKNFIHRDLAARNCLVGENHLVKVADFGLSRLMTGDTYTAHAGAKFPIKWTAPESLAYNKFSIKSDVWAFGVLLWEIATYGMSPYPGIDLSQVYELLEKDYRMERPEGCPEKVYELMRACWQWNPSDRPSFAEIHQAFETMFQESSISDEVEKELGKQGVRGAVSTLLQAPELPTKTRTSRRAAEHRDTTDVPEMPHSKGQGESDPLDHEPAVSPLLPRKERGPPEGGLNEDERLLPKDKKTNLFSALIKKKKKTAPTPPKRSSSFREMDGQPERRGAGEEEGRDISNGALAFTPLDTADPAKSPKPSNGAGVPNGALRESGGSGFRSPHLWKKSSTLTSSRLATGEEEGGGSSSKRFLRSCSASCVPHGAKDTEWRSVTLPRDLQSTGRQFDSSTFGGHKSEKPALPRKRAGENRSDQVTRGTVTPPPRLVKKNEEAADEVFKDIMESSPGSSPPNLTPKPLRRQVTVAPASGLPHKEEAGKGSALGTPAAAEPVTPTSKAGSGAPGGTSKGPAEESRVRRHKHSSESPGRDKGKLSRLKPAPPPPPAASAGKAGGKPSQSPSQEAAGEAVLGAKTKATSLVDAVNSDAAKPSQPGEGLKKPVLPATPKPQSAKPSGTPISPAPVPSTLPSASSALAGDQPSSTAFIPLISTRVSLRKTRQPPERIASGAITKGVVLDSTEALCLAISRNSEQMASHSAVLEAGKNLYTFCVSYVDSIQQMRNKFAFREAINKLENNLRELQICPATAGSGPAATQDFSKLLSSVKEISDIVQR

CC(C)n1cc(-c2cc(-c3ccc(CN4CCOCC4)cc3)cnc2N)nn1
inhibition [1]: 34.8% | inhibition [2]: 3% | inhibition [3]: 17.5% | inhibition [4]: 27.2% | inhibition [5]: -9.6% | inhibition [6]: 8.5% | inhibition [7]: 14.2% | inhibition [8]: 21% | inhibition [9]: -7.4% | inhibition [10]: 11%
